The text below walks through data of PMC9558053, “Development of a novel high-throughput screen for the identification of new inhibitors of protein S-acylation” (The Journal of Biological Chemistry, 2022).

In general, inhibition refers to the drop in the measured response relative to a control, in per cent.

The test addresses T1, human zDHHC15 (Homo sapiens, UniProt Q96MV8).
T1 construct: expressed in transfected cells; host or cells: HEK293T
T1 sequence (Q96MV8 1-337): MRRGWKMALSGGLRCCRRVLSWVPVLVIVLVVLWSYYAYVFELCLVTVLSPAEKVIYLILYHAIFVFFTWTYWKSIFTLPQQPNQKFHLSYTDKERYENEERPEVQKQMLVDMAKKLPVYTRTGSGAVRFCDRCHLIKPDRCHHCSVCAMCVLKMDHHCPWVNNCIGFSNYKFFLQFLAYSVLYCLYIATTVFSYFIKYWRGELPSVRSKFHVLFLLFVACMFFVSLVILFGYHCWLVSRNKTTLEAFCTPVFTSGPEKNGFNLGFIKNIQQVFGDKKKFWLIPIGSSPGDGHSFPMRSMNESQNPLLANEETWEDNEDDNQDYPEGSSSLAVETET
The test can be described thus: GFP-SNAP25b S-acylation in HEK293T cells co-expressing zDHHC15. The settings on record: HEK-293T; in cellulo HEK293T, compound 25 μM; read-out: SNAP25 S-acylation inhibition (%), zDHHC15. Type of test: cell-based. The procedure: We next investigated whether the identified compounds were effective at inhibiting zDHHC enzyme isoforms other than zDHHC2 (Fig. 6 and Table 1). […] We therefore treated cells coexpressing GFP-SNAP25 and each of these zDHHC enzymes with 25 μM of TTZ-1 and TTZ-2 and studied the subsequent effect on SNAP25 S-acylation. […] Importantly, the level of enzyme expression was unaffected by the compounds. […] As any major differences in the expression levels of the different enzymes could in theory contribute to the apparent differential effects of TTZ-1 and TTZ-2, we directly compared the expression of zDHHC2, zDHHC3, zDHHC7, zDHHC15, and zDHHC17 when transfected in HEK293T cells together with GFP-SNAP25.
Figure 6 Activity of TTZ-1 and TTZ-2 against SNAP25 S-acylation by human zDHHC2, zDHHC3, zDHHC7, zDHHC15, and zDHHC17 expressed in mammalian cells.A–E, HEK293T cells were transfected with a plasmid encoding GFP-SNAP25b together with either a control plasmid pEF-BOS-HA (pEF) or a plasmid encoding either HA-tagged human zDHHC2 (zD2) (A), zDHHC3 (zD3) (B), zDHHC7 (zD7) (C), zDHHC15 (zD15) (D), or zDHHC17 (zD17) (E) for 24 h. […] Three independent experiments were performed either in duplicate or in triplicate, and the quantification data were gathered on the graphs below each set of membranes. […]

As for `CCCCCCCOc1ccc(C(=O)Nc2cccc3c2OC(c2nnn[nH]2)CN3)cc1` (centres unmarked) [TTZ-1, N-(2-(1H-Tetrazol-5-yl)-3,4-dihydro-2H-benzo[b][1,4]oxazin-8-yl)-4-(heptyloxy)benzamide], the inhibition at 25 µM amounted to 112 ± 6%.

On to `O=C(Nc1cccc2c1OC(c1nnn[nH]1)CN2)c1ccc(OCCCCc2ccccc2)cc1` (centres unmarked) [TTZ-2, N-(2-(1H-Tetrazol-5-yl)-3,4-dihydro-2H-benzo[b][1,4]oxazin-8-yl)-4-(4-phenylbutoxy)benzamide], for which the inhibition at 25 µM is 93 ± 6%.
